Biological target: Epidermal growth factor receptor (Homo sapiens, UniProt P00533)
Sequence (P00533 whole entry): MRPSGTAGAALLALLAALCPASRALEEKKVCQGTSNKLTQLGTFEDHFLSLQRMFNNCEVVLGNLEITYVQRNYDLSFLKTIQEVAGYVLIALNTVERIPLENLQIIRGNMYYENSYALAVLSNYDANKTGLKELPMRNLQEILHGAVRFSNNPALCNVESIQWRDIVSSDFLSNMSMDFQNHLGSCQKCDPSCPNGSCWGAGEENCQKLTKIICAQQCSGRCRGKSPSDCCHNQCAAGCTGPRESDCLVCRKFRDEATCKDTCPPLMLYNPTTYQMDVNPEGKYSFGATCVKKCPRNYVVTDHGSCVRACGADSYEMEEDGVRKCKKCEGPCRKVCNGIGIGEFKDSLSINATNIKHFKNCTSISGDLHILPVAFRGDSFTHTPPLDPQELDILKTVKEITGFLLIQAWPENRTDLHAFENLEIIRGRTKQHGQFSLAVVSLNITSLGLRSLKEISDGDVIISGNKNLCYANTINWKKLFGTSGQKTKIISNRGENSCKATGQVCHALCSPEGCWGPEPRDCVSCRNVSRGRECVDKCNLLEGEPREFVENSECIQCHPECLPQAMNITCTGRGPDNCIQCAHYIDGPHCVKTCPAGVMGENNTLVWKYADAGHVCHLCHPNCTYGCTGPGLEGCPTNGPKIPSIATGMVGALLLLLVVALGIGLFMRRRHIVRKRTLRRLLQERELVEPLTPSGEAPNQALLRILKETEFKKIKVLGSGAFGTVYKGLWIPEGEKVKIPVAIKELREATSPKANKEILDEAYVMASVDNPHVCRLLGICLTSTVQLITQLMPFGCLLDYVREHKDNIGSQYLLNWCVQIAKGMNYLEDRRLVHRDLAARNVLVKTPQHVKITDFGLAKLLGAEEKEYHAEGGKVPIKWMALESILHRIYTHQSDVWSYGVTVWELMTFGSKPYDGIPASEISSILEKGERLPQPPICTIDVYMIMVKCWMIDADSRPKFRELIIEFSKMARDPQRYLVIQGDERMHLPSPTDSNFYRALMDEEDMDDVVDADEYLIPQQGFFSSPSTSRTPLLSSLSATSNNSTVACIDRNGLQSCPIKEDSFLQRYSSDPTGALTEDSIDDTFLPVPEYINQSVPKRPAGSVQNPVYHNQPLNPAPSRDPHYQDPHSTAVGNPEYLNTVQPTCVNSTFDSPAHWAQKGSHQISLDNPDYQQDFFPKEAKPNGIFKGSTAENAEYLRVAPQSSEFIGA

Row | IC50 | SMILES
1 | 186 nM | OCCC#Cc1ccc2ncnc(Nc3ccc(F)c(Cl)c3)c2c1
2 | 114 nM | OCCCC#Cc1ccc2ncnc(Nc3ccc(F)c(Cl)c3)c2c1
3 | 331 nM | Fc1ccc(Nc2ncnc3ccc(C#Cc4ccccc4)cc23)cc1Cl
4 | 152 nM | CC(C)(O)C#Cc1ccc2ncnc(Nc3ccc(F)c(Cl)c3)c2c1
5 | 206 nM | COc1cc2ncnc(Nc3cccc(C#CC(C)(C)O)c3)c2cc1OC
6 | 1360 nM | COc1cc2ncnc(Nc3cccc(C#CCCCO)c3)c2cc1OC
7 | 127 nM | C#Cc1ccc2ncnc(Nc3ccc(F)c(Cl)c3)c2c1
8 | 1640 nM | COc1cc2ncnc(Nc3cccc(C#CCO)c3)c2cc1OC
9 | 402 nM | COc1cc2ncnc(Nc3cccc(C#CCCO)c3)c2cc1OC
10 | 50.3 nM | Fc1ccc(Nc2ncnc3ccc(C#CCN4CCOCC4)cc23)cc1Cl
11 | 921 nM | COc1cc2ncnc(Nc3cccc(C#Cc4ccccc4)c3)c2cc1OC
12 | 14.1 nM | OCC#Cc1ccc2ncnc(Nc3ccc(F)c(Cl)c3)c2c1
13 | 28.8 nM | C#Cc1cccc(Nc2ncnc3cc(OC)c(OC)cc23)c1
14 | 88.7 nM | Fc1ccc(Nc2ncnc3ccc(C#CCN4CCCCC4)cc23)cc1Cl

Source: ChEMBL document CHEMBL1140520, “Synthesis and biological evaluation of substituted 6-alkynyl-4-anilinoquinazoline derivatives as potent EGFR inhibitors” (Bioorg Med Chem Lett, 2007)
